{"source": "paper PMC9909315", "about": "“SY-707, an ALK/FAK/IGF1R inhibitor, suppresses growth and metastasis of breast cancer cells” (Acta Biochimica et Biophysica Sinica, 2022)", "key": {"A549": {"test_system": "A549", "experiment": "Cell proliferation assay (CellTiter-Glo/CellTiter-Blue)", "type": "cell-based", "settings": "Homo sapiens, A549, 72 h, read-out: IC50 anti-proliferation", "method": "(§1) MCF-7, T47D, MDA-MB-231, MIA Paca-2, PANC-1, SW620, HT-29, U87MG, and A549 cell lines were purchased from the Cell Bank of Chinese Academy of Science (Shanghai, China). Cells were cultured in DMEM or RPMI-1640 (Gibco, BRL, USA) supplemented with 10% FBS (HyClone, Logan, USA) and 50 IU penicillin/streptomycin in a humidified atmosphere with 5% CO 2 at 37°C. The effects of SY-707 on cell proliferation were measured using CellTiter-Glo ® or CellTiter-Blue ® Cell Viability Assay kits (Promega, Beijing, China). In brief, cells were seeded in 96-well plates at low destiny with 195 μL of medium per well. The stock solutions of compounds were 3-fold serially diluted with DMSO from 10 mM to 0.3 nM, and 4 μL of solution at each concentration was mixed with 96 μL of serum free medium, then 5 μL of the resulted solution was added to each well. After treatment for 72 h, 25 μL of CellTiter-Glo ® reagent (for adherent cells) or 35 μL CellTiter-Blue ® reagent (for suspension cells) was added to each well, and the resulted mixture was further incubated at room temperature for 10 min or 4 h. The luminescence signals were measured using EnVision ® multilabel plate reader (PerkinElmer), and the fluorescent signals were examined using FlexStation 3 (Molecular Devices, Sunnyvale, USA), and the IC 50 values were calculated using Prism ® software (Version 5.0) and presented as the average of three independent experiments performed in duplicate."}, "HT29": {"test_system": "HT29", "experiment": "Cell proliferation assay (CellTiter-Glo/CellTiter-Blue)", "type": "cell-based", "settings": "Homo sapiens, HT-29, 72 h, read-out: IC50 anti-proliferation", "method": "as §1"}, "MCF-7": {"test_system": "MCF-7", "experiment": "Cell proliferation assay (CellTiter-Glo/CellTiter-Blue)", "type": "cell-based", "settings": "Homo sapiens, MCF7, 72 h, read-out: IC50 anti-proliferation", "method": "as §1"}, "MDA-MB-231": {"test_system": "MDA-MB-231", "experiment": "Cell proliferation assay (CellTiter-Glo/CellTiter-Blue)", "type": "cell-based", "settings": "Homo sapiens, MDA-MB-231, 72 h, read-out: IC50 anti-proliferation", "method": "as §1"}, "MIA PACA-2": {"test_system": "MIA PACA-2", "experiment": "Cell proliferation assay (CellTiter-Glo/CellTiter-Blue)", "type": "cell-based", "settings": "Homo sapiens, MIA PaCa-2, 72 h, read-out: IC50 anti-proliferation", "method": "as §1"}, "PANC-1": {"test_system": "PANC-1", "experiment": "Cell proliferation assay (CellTiter-Glo/CellTiter-Blue)", "type": "cell-based", "settings": "Homo sapiens, PANC-1, 72 h, read-out: IC50 anti-proliferation", "method": "as §1"}, "SW620": {"test_system": "SW620", "experiment": "Cell proliferation assay (CellTiter-Glo/CellTiter-Blue)", "type": "cell-based", "settings": "Homo sapiens, SW-620, 72 h, read-out: IC50 anti-proliferation", "method": "as §1"}, "T47D": {"test_system": "T47D", "experiment": "Cell proliferation assay (CellTiter-Glo/CellTiter-Blue)", "type": "cell-based", "settings": "Homo sapiens, 72 h, read-out: IC50 anti-proliferation", "method": "as §1"}, "U87MG": {"test_system": "U87MG", "experiment": "Cell proliferation assay (CellTiter-Glo/CellTiter-Blue)", "type": "cell-based", "settings": "Homo sapiens, U-87 MG, 72 h, read-out: IC50 anti-proliferation", "method": "as §1"}, "MCF-7 cells": {"test_system": "MCF-7 cells", "experiment": "Would healing (migration) assay", "type": "cell-based", "settings": "MCF-7, 24 h, vs control", "method": "(§2) Totally, 5×10 ^5 cells were plated into each well of 6-well plates, and cultured to 70%–80% confluence, then the cell monolayer was gently and slowly scratched with a new 1-mL pipette tip across the center of the well. After scratching, the wells were gently washed with PBS twice to remove the detached cells, and replenished with fresh medium containing indicated concentration of compounds. The treated cells were allowed to grow for additional 24 h, and images were capturedunder a microscope. The migration distance were calculated and analyzed to evaluate the effects of compounds."}, "T47D cells": {"test_system": "T47D cells", "experiment": "Would healing (migration) assay", "type": "cell-based", "settings": "24 h, vs control", "method": "as §2"}, "Pharmacokinetic study": {"experiment": "Pharmacokinetic study", "type": "in vivo, SD rats", "settings": "SD, serum, Rat, 5 mg/kg PO; for CL/F: read-out: Cl_F_obs (converted); for MRT inf: read-out: MRT INF_obs", "method": "[…] […] The serum samples were collected by centrifugation and stored at –80 °C. Compound concentrations in the sample serums were further analyzed with an API-4000 LC-MS/MS system (Applied Biosystem, Foster City, USA), and pharmacokinetic parameters ( T 1/2, T max, C max, AUC 0-INF, Cl_F_obs, MRT INF_obs, and F(%)) were calcuated using the WinNonlin software (version 6.2; WinNonlin Professional, Pharsight, USA)."}, "Tissue distribution": {"experiment": "Tissue distribution", "type": "in vivo", "settings": "SD rats, oral 15 mg/kg; except the uterus and spleen", "method": "In addition, SY-707 also had good clearance parameters and oral bioavailability in these two species.\nSupplementary Figure S1. The tissue distribution profile of SY-707 Tissue distribution of SY-707 in SD rats was measured after oral administration of SY-707 (15 mg/kg)."}, "T47D xenograft": {"test_system": "T47D xenograft", "experiment": "T47D tumor xenograft study", "type": "in vivo, nude mice", "method": "Due to the strong cell growth inhibition potency of SY-707, we firstly evaluate its in vivo anti-cancer activity in T47D xenograft model mice. In this model, mice were orally administered twice a day with vehicle or SY-707 at dose of 100, 50 or 25 mg/kg after tumor size reached 150–300 mm ^3.\nNext, we evaluated the combination effects of SY-707 and paclitaxel (an approved drug for breast cancer therapy) in T47D xenograft model. Mice bearing T47D breast cancer were divided randomly into 4 groups: vehicle, SY-707 (100 mg/kg/day), paclitaxel (10 mg/kg/week), and SY-707 plus paclitaxel groups."}}, "note": "Read-outs that look alike come from different tables or passages of the source."}
{"smiles": "COc1cc(N2CCC(N3CCN(C)CC3)CC2)ccc1Nc1nc2c(c(Nc3ccccc3S(=O)(=O)NC(C)C)n1)CCN2", "note": "[SY-707, N-isopropyl-2-((2-((2-methoxy-4-(4-(4-methylpiperazin-1-yl)piperidin-1-yl)phenyl)amino)-6,7-dihydro-5H-pyrrolo[2,3-d]pyrimidin-4-yl)amino)benzenesulfonamide]", "values": [{"measurement": "IC50", "setting": "A549", "result": 5.7, "unit": "µM"}, {"measurement": "IC50", "setting": "HT29", "result": 0.6, "unit": "µM"}, {"measurement": "IC50", "setting": "MCF-7", "result": 0.59, "unit": "µM"}, {"measurement": "IC50", "setting": "MDA-MB-231", "result": 1.9, "unit": "µM"}, {"measurement": "IC50", "setting": "MIA PACA-2", "result": 1.3, "unit": "µM"}, {"measurement": "IC50", "setting": "PANC-1", "result": 1.2, "unit": "µM"}, {"measurement": "IC50", "setting": "SW620", "result": 0.81, "unit": "µM"}, {"measurement": "IC50", "setting": "T47D", "result": 1.8, "unit": "µM"}, {"measurement": "IC50", "setting": "U87MG", "result": "> 10", "unit": "µM"}, {"measurement": "migration distance", "setting": "MCF-7 cells", "result": "significantly decreased"}, {"measurement": "migration distance", "setting": "T47D cells", "result": "significantly decreased"}, {"measurement": "AUC(0-inf)", "setting": "Pharmacokinetic study; Female", "result": 8590, "unit": "ng·h/mL"}, {"measurement": "Cmax", "setting": "Pharmacokinetic study; Female", "result": 639, "unit": "ng/mL"}, {"measurement": "Tmax", "setting": "Pharmacokinetic study; Female", "result": 4.33, "unit": "h"}, {"measurement": "bioavailability", "setting": "Pharmacokinetic study; Female", "result": 33.2, "unit": "%"}, {"measurement": "half-life", "setting": "Pharmacokinetic study; Female", "result": 11.2, "unit": "h"}, {"measurement": "CL/F", "setting": "Pharmacokinetic study; Female", "result": 9.77, "unit": "mL/min/kg"}, {"measurement": "MRT inf", "setting": "Pharmacokinetic study; Female", "result": 13.8, "unit": "h"}, {"measurement": "AUC(0-inf)", "setting": "Pharmacokinetic study; Male", "result": 13300, "unit": "ng·h/mL"}, {"measurement": "Cmax", "setting": "Pharmacokinetic study; Male", "result": 909, "unit": "ng/mL"}, {"measurement": "Tmax", "setting": "Pharmacokinetic study; Male", "result": 3.33, "unit": "h"}, {"measurement": "bioavailability", "setting": "Pharmacokinetic study; Male", "result": 38.3, "unit": "%"}, {"measurement": "half-life", "setting": "Pharmacokinetic study; Male", "result": 13, "unit": "h"}, {"measurement": "CL/F", "setting": "Pharmacokinetic study; Male", "result": 6.3, "unit": "mL/min/kg"}, {"measurement": "MRT inf", "setting": "Pharmacokinetic study; Male", "result": 15.5, "unit": "h"}, {"measurement": "AUC(0-inf)", "setting": "Pharmacokinetic study; both sexes, All", "result": 11000, "unit": "ng·h/mL"}, {"measurement": "Cmax", "setting": "Pharmacokinetic study; both sexes, All", "result": 774, "unit": "ng/mL"}, {"measurement": "Tmax", "setting": "Pharmacokinetic study; both sexes, All", "result": 3.83, "unit": "h"}, {"measurement": "bioavailability", "setting": "Pharmacokinetic study; both sexes, All", "result": 36.2, "unit": "%"}, {"measurement": "half-life", "setting": "Pharmacokinetic study; both sexes, All", "result": 12.1, "unit": "h"}, {"measurement": "CL/F", "setting": "Pharmacokinetic study; both sexes, All", "result": 8.03, "unit": "mL/min/kg"}, {"measurement": "MRT inf", "setting": "Pharmacokinetic study; both sexes, All", "result": 14.7, "unit": "h"}, {"measurement": "distribution in rat tissues (AUC 0–24 h) relative to plasma", "setting": "Tissue distribution", "result": "other organs had lower level of SY-707 than the plasma"}, {"measurement": "tumor growth inhibition rate", "setting": "T47D xenograft; 25 mg/kg orally twice a day, 21 days, P<0.05", "result": 31, "unit": "%"}, {"measurement": "tumor growth inhibition rate", "setting": "T47D xenograft; 50 mg/kg orally twice a day, 21 days, P<0.05", "result": 39, "unit": "%"}, {"measurement": "tumor growth inhibition rate", "setting": "T47D xenograft; 100 mg/kg orally twice a day, 21 days, P<0.01", "result": 61, "unit": "%"}, {"measurement": "tumor growth inhibition rate", "setting": "T47D xenograft; combination study, SY-707 100 mg/kg/day alone, 24 days", "result": 14, "unit": "%"}]}
